Converted amounts (≈) assume the structure as drawn.

This passage reports MIC and IC90 results from patent US12679824B2 (Hoffmann-La Roche Inc., priority 2020, dated 2026).

For one experiment, the system named is Acinetobacter baumannii ATCC17978. Put plainly: Minimal Inhibitory Concentration (MIC) assay. In kind it is cell-based. Conditions: Acinetobacter baumannii ATCC17978; CAMHB; 20 hours at 35±2° C.; lowest concentration that inhibits visible growth; read-out: ATCC 17978 MIC. On the procedure: Minimal Inhibitory Concentration Protocol (MIC) Assay:
Table 2 provides the in vitro potency of the compounds of present invention obtained against the strain Acinetobacter baumannii ATCC17978, which was assessed by an MIC (Minimal Inhibitory Concentration) assay as follows.
Test compounds were prepared from 10 mM DMSO stock solutions. The top dose was diluted from 10 mM to 2.5 mM by DMSO, followed by serial 2-fold 11 points dilutions in DMSO in a master plate (Greiner, Cat No: 651201). 2 μL compounds were transferred from the master plate into a new 96-well assay plate (Costar, 3599).
The growth medium […] Mueller Hinton Broth (CAMHB) was prepared by adding 22 g powder (BD, 212322) in 1 L purified water, autoclaved, and supplemented with sterilized CaCl2) (20 mg per liter) and MgCl2 (10 mg per liter).
Vials of each of the test microorganisms were maintained frozen in the vapor phase of a liquid nitrogen freezer. Took out the bacterial strain ATCC 17978 from liquid nitrogen freezer, thawed it at room temperature, and diluted the bacterial in the CAMHB medium to achieve a final inoculum of 2×10^5 CFU/mL. 98 μL of the adjusted bacteria suspension was dispensed to the assay plate and pipetted 5 times.
Then the assay plates were incubated for 20 hours at 35±2° C. in ambient air with humidity. Following incubation, MIC (μg/mL) value, the lowest concentration of drug that inhibits visible growth of the microorganism, was recorded by visual judgment of bacterial growth through magnification mirror of MIC reader, and the assay plates were photographed with Qcount system as image raw data. Meanwhile, the OD600 of assay plates was recorded with SpectraMax Plus384 as OD raw data.
With `COc1cnc(-n2cc(-c3cnc(C(=O)Nc4ccc(C(=O)N5CCN(C(=O)C6CCNCC6)CC5)c(Cl)c4)n3C)c(C(F)(F)F)n2)nc1.O=CO` [Example A4, N-[3-chloro-4-[4-(piperidine-4-carbonyl)piperazine-1-carbonyl]phenyl]-5-[1-(5-methoxypyrimidin-2-yl)-3-(trifluoromethyl)pyrazol-4-yl]-1-methyl-imidazole-2-carboxamide], the MIC (usually the least concentration at which growth counts as inhibited) came out at 2.19 µg/mL.
On the same count and under the same terms, to `COCCOc1ccc(-n2cc(-c3cnc(C(=O)Nc4ccc(C(=O)N5CCN(C(=O)C6CCNCC6)CC5)c(Cl)c4)n3C)c(C(F)(F)F)n2)nc1.O=CO` [Example A7, N-[3-chloro-4-[4-(piperidine-4-carbonyl)piperazine-1-carbonyl]phenyl]-5-[1-[5-(2-methoxyethoxy)-2-pyridyl]-3-(trifluoromethyl)pyrazol-4-yl]-1-methyl-imidazole-2-carboxamide] belongs 1.16 µg/mL; to `CN(C)c1ccnc(-n2ncc(-c3cnc(C(=O)Nc4ccc(C(=O)N5CCN(C(=O)C6CCNCC6)CC5)c(Cl)c4)n3C)c2C(F)(F)F)n1.O=C(O)C(F)(F)F` [Example A18, N-[3-chloro-4-[4-(piperidine-4-carbonyl)piperazine-1-carbonyl]phenyl]-5-[1-[4-(dimethylamino)pyrimidin-2-yl]-5-(trifluoromethyl)pyrazol-4-yl]-1-methyl-imidazole-2-carboxamide], 2.23 µg/mL; to `Cc1nn(-c2ccc(N)cn2)cc1-c1cnc(C(=O)Nc2ccc(C(=O)N3CCN(C(=O)C4CCN(C)CC4)CC3)c(Cl)c2)n1C` [Example C12, 5-[1-(5-amino-2-pyridyl)-3-methyl-pyrazol-4-yl]-N-[3-chloro-4-[4-(1-methylpiperidine-4-carbonyl)piperazine-1-carbonyl]phenyl]-1-methyl-imidazole-2-carboxamide], 38 µg/mL (≈ 58.8 µM).
Still for that read-out and setting: to `CCc1nn(-c2ccc(N)cn2)cc1-c1cnc(C(=O)Nc2ccc(C(=O)N3CCN(C(=O)C4CCN(C)CC4)CC3)c(Cl)c2)n1C` [Example C13, 5-[1-(5-amino-2-pyridyl)-3-ethyl-pyrazol-4-yl]-N-[3-chloro-4-[4-(1-methylpiperidine-4-carbonyl)piperazine-1-carbonyl]phenyl]-1-methyl-imidazole-2-carboxamide] belongs 16.5 µg/mL (≈ 25 µM); to `CN1CCC(C(=O)N2CCN(C(=O)c3ccc(NC(=O)c4ncc(-c5cn(-c6ccc(N)nn6)nc5C(F)(F)F)n4C)cc3Cl)CC2)CC1` [Example C14, 5-[1-(6-aminopyridazin-3-yl)-3-(trifluoromethyl)pyrazol-4-yl]-N-[3-chloro-4-[4-(1-methylpiperidine-4-carbonyl)piperazine-1-carbonyl]phenyl]-1-methyl-imidazole-2-carboxamide], 5.09 µg/mL (≈ 7.27 µM).

Staying with this experiment, now noted: Acinetobacter baumannii, ATCC17978, 20 h, read-out: ATCC 17978 MIC.
For the compound `CNc1ccc(-n2cc(-c3cnc(C(=O)Nc4ccc(C(=O)N5CCN(C(=O)C6CCNCC6)CC5)c(Cl)c4)n3C)c(C(F)(F)F)n2)nc1` [Example D1, N-[3-chloro-4-[4-(piperidine-4-carbonyl)piperazine-1-carbonyl]phenyl]-1-methyl-5-[1-[5-(methylamino)-2-pyridyl]-3-(trifluoromethyl)pyrazol-4-yl]imidazole-2-carboxamide], the MIC was determined as 0.55 µg/mL (≈ 0.787 µM).

In a further experiment the test system is Acinetobacter baumannii ATCC17961. Kind of experiment: 90% Growth Inhibitory Concentration (IC90) determination, antimicrobial susceptibility testing. The experiment is classed as cell-based. Conditions: Acinetobacter baumannii, ATCC17961, 16 h, Acinetobacter baumannii ATCC17961; Iso-Sensitest broth; growth by optical density at 600 nm over 16h; concentration inhibiting 90% of the growth; read-out: ATCC 17961 IC90. The essentials:
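Broth microdilution in Iso-Sensitest medium, compounds twofold diluted (e.g. 50–0.097 μM final), inoculum ~5×10^(5) CFU/ml, 35±2° C. OD600 was read every 20 min over 16 h. IC90 was derived from growth inhibition during logarithmic growth.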
As for `Cc1cc(-n2cc(-c3cnc(C(=O)Nc4ccc(C(=O)N5CCN(C(=O)C6CCNCC6)CC5)c(Cl)c4)n3C)c(C(F)(F)F)n2)cnc1N` [Example Z77, 5-[1-(6-amino-5-methyl-3-pyridyl)-3-(trifluoromethyl)pyrazol-4-yl]-N-[3-chloro-4-[4-(piperidine-4-carbonyl)piperazine-1-carbonyl]phenyl]-1-methyl-imidazole-2-carboxamide], the IC90 – broadly, the point of the concentration-response curve where the effect stands at 90% – stood at 410 nM.
The same measure, in the same setting: to `Cc1nc(N)ccc1-n1cc(-c2cnc(C(=O)Nc3ccc(C(=O)N4CCN(C(=O)C5CCNCC5)CC4)c(Cl)c3)n2C)c(C(F)(F)F)n1` [Example Z79, 5-[1-(6-amino-2-methyl-3-pyridyl)-3-(trifluoromethyl)pyrazol-4-yl]-N-[3-chloro-4-[4-(piperidine-4-carbonyl)piperazine-1-carbonyl]phenyl]-1-methyl-imidazole-2-carboxamide] belongs 1200 nM; to `Cn1c(-c2cn(-c3cc(Cl)c(N)cn3)nc2C(F)(F)F)cnc1C(=O)Nc1ccc(C(=O)N2CCN(C(=O)C3CCNCC3)CC2)c(Cl)c1` [Example Z80, 5-[1-(5-amino-4-chloro-2-pyridyl)-3-(trifluoromethyl)pyrazol-4-yl]-N-[3-chloro-4-[4-(piperidine-4-carbonyl)piperazine-1-carbonyl]phenyl]-1-methyl-imidazole-2-carboxamide], 380 nM.
Still for that read-out and setting: to `Cc1cc(N)cnc1-n1cc(-c2cnc(C(=O)Nc3ccc(C(=O)N4CCN(C(=O)C5CCNCC5)CC4)c(Cl)c3)n2C)c(C(F)(F)F)n1` [Example Z81, 5-[1-(5-amino-3-methyl-2-pyridyl)-3-(trifluoromethyl)pyrazol-4-yl]-N-[3-chloro-4-[4-(piperidine-4-carbonyl)piperazine-1-carbonyl]phenyl]-1-methyl-imidazole-2-carboxamide] belongs 750 nM; to `Cc1cc(-n2cc(-c3cnc(C(=O)Nc4ccc(C(=O)N5CCN(C(=O)C6CCNCC6)CC5)c(Cl)c4)n3C)c(C(F)(F)F)n2)ncc1N` [Example Z82, 5-[1-(5-amino-4-methyl-2-pyridyl)-3-(trifluoromethyl)pyrazol-4-yl]-N-[3-chloro-4-[4-(piperidine-4-carbonyl)piperazine-1-carbonyl]phenyl]-1-methyl-imidazole-2-carboxamide], 340 nM; to `Cn1c(-c2cn(-c3cc(F)ncc3N)nc2C(F)(F)F)cnc1C(=O)Nc1ccc(C(=O)N2CCN(C(=O)C3CCNCC3)CC2)c(Cl)c1` [Example Z83, 5-[1-(5-amino-2-fluoro-4-pyridyl)-3-(trifluoromethyl)pyrazol-4-yl]-N-[3-chloro-4-[4-(piperidine-4-carbonyl)piperazine-1-carbonyl]phenyl]-1-methyl-imidazole-2-carboxamide], 1220 nM.
Still for that read-out and setting: to `Cn1c(-c2cn(-c3ccc(N)nc3F)nc2C(F)(F)F)cnc1C(=O)Nc1ccc(C(=O)N2CCN(C(=O)C3CCNCC3)CC2)c(Cl)c1` [Example Z84, 5-[1-(6-amino-2-fluoro-3-pyridyl)-3-(trifluoromethyl)pyrazol-4-yl]-N-[3-chloro-4-[4-(piperidine-4-carbonyl)piperazine-1-carbonyl]phenyl]-1-methyl-imidazole-2-carboxamide] belongs 230 nM.
For `Cn1c(-c2cn(-c3cc(N)c([N+](=O)[O-])cn3)nc2C(F)(F)F)cnc1C(=O)Nc1ccc(C(=O)N2CCN(C(=O)C3CCNCC3)CC2)c(Cl)c1` [Example Z85, 5-[1-(4-amino-5-nitro-2-pyridyl)-3-(trifluoromethyl)pyrazol-4-yl]-N-[3-chloro-4-[4-(piperidine-4-carbonyl)piperazine-1-carbonyl]phenyl]-1-methyl-imidazole-2-carboxamide], the IC90 is 170 nM.
Same read-out and setting: then `Cc1nc(-n2cc(-c3cnc(C(=O)Nc4ccc(C(=O)N5CCN(C(=O)C6CCNCC6)CC5)c(Cl)c4)n3C)c(C(F)(F)F)n2)ccc1N` [Example Z86, 5-[1-(5-amino-6-methylpyridin-2-yl)-3-(trifluoromethyl)pyrazol-4-yl]-N-[3-chloro-4-[4-(piperidine-4-carbonyl)piperazine-1-carbonyl]phenyl]-1-methylimidazole-2-carboxamide], with 290 nM.
`Cn1c(-c2cn(-c3cc(N)c(N)cn3)nc2C(F)(F)F)cnc1C(=O)Nc1ccc(C(=O)N2CCN(C(=O)C3CCNCC3)CC2)c(Cl)c1` [Example Z87, N-[3-chloro-4-[4-(piperidine-4-carbonyl)piperazine-1-carbonyl]phenyl]-5-[1-(4,5-diamino-2-pyridyl)-3-(trifluoromethyl)pyrazol-4-yl]-1-methyl-imidazole-2-carboxamide]: the concentration for an effect of 90% (IC90) was 540 nM.
On the same count and under the same terms, then `Cn1c(-c2cn(-c3ccc(NC(=O)C4CCNCC4)cn3)nc2C(F)(F)F)cnc1C(=O)Nc1ccc(C(=O)N2CCN(C(=O)C3CCNCC3)CC2)c(Cl)c1` [Example Z88, N-[6-[4-[2-[[3-chloro-4-(4-isonipecotoylpiperazine-1-carbonyl)phenyl]carbamoyl]-3-methyl-imidazol-4-yl]-3-(trifluoromethyl)pyrazol-1-yl]-3-pyridyl]isonipecotamide], with 980 nM.
On the same count and under the same terms, to `Cn1c(-c2cn(-c3ccc(NCCN)cn3)nc2C(F)(F)F)cnc1C(=O)Nc1ccc(C(=O)N2CCN(C(=O)C3CCNCC3)CC2)c(Cl)c1` [Example Z89, 5-[1-[5-(2-aminoethylamino)-2-pyridyl]-3-(trifluoromethyl)pyrazol-4-yl]-N-[3-chloro-4-(4-isonipecotoylpiperazine-1-carbonyl)phenyl]-1-methyl-imidazole-2-carboxamide] belongs 100 nM.
